Source: patent US8809233B2, “Ternary herbicidal compositions comprising aminopyralid and imazamox” (BASF SE, priority 2008, dated 2014)
Like-named read-outs stand apart in the source and are kept apart here.

Key:
Format in all cases: in vivo
[1] = test system: Capsella bursa-pasturis (CAPBP); assay: greenhouse post-emergence herbicidal activity on CAPBP
Procedure: (§1) The test plants have been seeded, separately for each species, in plastic containers in sandy loamy soil containing 5% of organic matter.
(§2) For the post emergence treatment, the plants were first grown to the 2 leaf station (GS 12). Here, the herbicidal compositions were suspended or emulsified in water as distribution medium and sprayed using finely distributing nozzels.
(§3) The plants have been cultivated due to there individual requirements at 10-25° C. and 20-35° C. The plants were irrigated due to there necessity.
(§4) The respective herbicides A and/or safener were formulated as 10% by weight strength suspension concentrate and introduced to the spray liquor with the amount of solvent system used for applying the active compound. Herbicide B and/or safener were used as commercially available formulations and introduced to the spray liquor with the amount of solvent system used for applying the active compound. In the examples, the solvent used was water.
(§5) In the following experiments, the herbicidal activity for the individual herbicide compounds (solo and mixture applications), the herbicidal succession was assessed 14 days after treatment (DAT).
(§6) The evaluation for the damage on undesired weeds caused by the chemical compositions was carried out using a scale from 0 to 100%, compared to the untreated control plants. Here, 0 means no damage and 100 means complete destruction of the plants.
(§7) The value E, which is to be expected if the activity of the individual compounds is just additive, was calculated using the method of S. R. Colby (1967) “Calculating synergistic and antagonistic responses of herbicide combinations”, weeds 15, p. 22ff.
(§8) [formula] where: X=effect in percent using herbicide A at an application rate a; Y=effect in percent using herbicide B at an application rate b; Z=effect in percent using herbicide C at an application rate c; E=expected effect (in %) of A+B+C at application rates a+b+c
(§9) Tables 1 to 2 relate to the herbicidal activity, in greenhouse trials, of the individual actives and the combination in post-emergence application 14 DAT.

[2] = test system: Matricaria inodora (MATIN); assay: greenhouse post-emergence herbicidal activity on MATIN; settings: Tripleurospermum inodorum
Procedure: as §1, §2, §3, §4, §5, §6, §7, §8, §9

Papaver rhoeas (PAPRH) = assay: greenhouse post-emergence herbicidal activity on PAPRH
Procedure: as §1, §2, §3, §4, §5, §6, §7, §8, §9

[3] = test system: Mercurialis annua (MERAN); assay: greenhouse post-emergence herbicidal activity on MERAN
Procedure: as §1, §2, §3, §4, §5, §6, §7, §8, §9

Thlaspi arvense (THLAR) = assay: greenhouse post-emergence herbicidal activity on THLAR
Procedure: as §1, §2, §3, §4, §5, §6, §7, §8, §9

Viola arvensis (VIOAR) = assay: greenhouse post-emergence herbicidal activity on VIOAR
Procedure: as §1, §2, §3, §4, §5, §6, §7, §8, §9

[4] = test system: Matricaria chamomilla (MATCH); assay: greenhouse post-emergence herbicidal activity on MATCH; settings: 672 h, read-out: % activity 28 DAT
Procedure: as §1, §2, §3
as §4, with “water. […]” for “water.”
The evaluation for the damage on undesired weeds caused by the chemical compositions was carried out using a scale from 0 to 100%, compared to the untreated control plants. […]
The value E, which is to be expected if the activity of the individual compounds is just additive, was calculated using the method of S. R. Colby (1967) “Calculating synergistic and antagonistic responses of herbicide combinations”, weeds 15, p. […]

`COCc1cnc(C2=NC(C)(C(C)C)C(=O)N2)c(C(=O)O)c1` (racemic) [imazamox, 2-[(RS)-4-isopropyl-4-methyl-5-oxo-2-imidazolin-2-yl]-5-methoxymethylnicotinic acid] was tested. Which inhibition at 20 g/ha ([1]; CAPBP, solo application, use rate 20 g ai/ha) did it give?
The inhibition at 20 g/ha was 90%.

What about the inhibition at 10 g/ha ([1]; Table 2, CAPBP, solo application, use rate 10 g ai/ha (imazamox), read-out: % activity) of the same compound?
Its inhibition at 10 g/ha is 80%.

What about the inhibition at 20 g/ha ([2]; MATIN, solo application, use rate 20 g ai/ha) of the same compound?
The inhibition at 20 g/ha was 65%.

And the inhibition at 20 g/ha (Papaver rhoeas (PAPRH); PAPRH, solo application, use rate 20 g ai/ha)?
Its inhibition at 20 g/ha is 35%.

What about the inhibition at 20 g/ha ([3]; MERAN, solo application, use rate 20 g ai/ha) of the same compound?
Its inhibition at 20 g/ha is 90%.

And the inhibition at 20 g/ha (Thlaspi arvense (THLAR); THLAR, solo application, use rate 20 g ai/ha)?
The inhibition at 20 g/ha was 90%.

What about the inhibition at 20 g/ha (Viola arvensis (VIOAR); VIOAR, solo application, use rate 20 g ai/ha) of the same compound?
Its inhibition at 20 g/ha is 0%.

How did the inhibition at 2.5 g/ha ([1]; read-out: % activity) turn out when `Nc1cc(Cl)nc(C(=O)O)c1Cl` [aminopyralid, 4-amino-3,6-dichloropyridine-2-carboxylic acid] was run?
The inhibition at 2.5 g/ha was 0%.

What about the inhibition at 5 g/ha ([1]; read-out: % activity) of the same compound?
Its inhibition at 5 g/ha is 10%.

And the inhibition at 10 g/ha ([1]; read-out: % activity)?
The inhibition at 10 g/ha was 25%.

And the inhibition at 2.5 g/ha ([2]; read-out: % activity)?
Its inhibition at 2.5 g/ha is 35%.

And the inhibition at 5 g/ha ([2]; read-out: % activity)?
The inhibition at 5 g/ha was 60%.

What about the inhibition at 2.5 g/ha (Papaver rhoeas (PAPRH); read-out: % activity) of the same compound?
The inhibition at 2.5 g/ha was 0%.

And the inhibition at 5 g/ha (Papaver rhoeas (PAPRH); read-out: % activity)?
The inhibition at 5 g/ha was 15%.

What about the inhibition at 2.5 g/ha ([3]; read-out: % activity) of the same compound?
Its inhibition at 2.5 g/ha is 70%.

What about the inhibition at 2.5 g/ha [4] of the same compound?
The inhibition at 2.5 g/ha was 40%.

What about the inhibition at 5 g/ha [4] of the same compound?
Its inhibition at 5 g/ha is 75%.

And the inhibition at 2.5 g/ha (Thlaspi arvense (THLAR); read-out: % activity)?
Its inhibition at 2.5 g/ha is 30%.

And the inhibition at 2.5 g/ha (Viola arvensis (VIOAR); read-out: % activity)?
Its inhibition at 2.5 g/ha is 10%.

And the inhibition at 5 g/ha (Viola arvensis (VIOAR); read-out: % activity)?
The inhibition at 5 g/ha was 10%.

What does the source list for `O=C(O)c1nc(Cl)ccc1Cl` [clopyralid]?
inhibition at 30 g/ha ([1]; Table 2, CAPBP, solo application, use rate 30 g ai/ha): 0%; inhibition at 120 g/ha ([1]; Table 2, CAPBP, solo application, use rate 120 g ai/ha): 10%

For `Cc1cccc(C)c1N(Cn1cccn1)C(=O)CCl` [metazachlor], which inhibition at 187 g/ha ([1]; CAPBP, solo application, use rate 187 g ai/ha) is on record?
The inhibition at 187 g/ha was 0%.

What about the inhibition at 187 g/ha ([2]; MATIN, solo application, use rate 187 g ai/ha) of the same compound?
Its inhibition at 187 g/ha is 60%.

What about the inhibition at 187 g/ha (Papaver rhoeas (PAPRH); PAPRH, solo application, use rate 187 g ai/ha) of the same compound?
Its inhibition at 187 g/ha is 30%.

What about the inhibition at 187 g/ha ([3]; MERAN, solo application, use rate 187 g ai/ha) of the same compound?
Its inhibition at 187 g/ha is 15%.

What about the inhibition at 187 g/ha (Thlaspi arvense (THLAR); THLAR, solo application, use rate 187 g ai/ha) of the same compound?
Its inhibition at 187 g/ha is 0%.

What about the inhibition at 187 g/ha (Viola arvensis (VIOAR); VIOAR, solo application, use rate 187 g ai/ha) of the same compound?
The inhibition at 187 g/ha was 15%.
